Source: patent publication US10407409B2, “6-(5-hydroxy-1H-pyrazol-1-yl)nicotinamide inhibitors of PHD” (Takeda Pharmaceutical Company Limited, priority 2013, dated 2019)

What was measured:
[1] = test system: HIF1a protein in H9c2 rat cardiomyocytes; assay: Cell-based HIF-alpha stabilization assay (inhibition of PHD in cells); conditions: Rattus norvegicus, H9c2, 24 h, 24 hrs compound incubation, HIF1a protein by ELISA, read-out: Inhibition of PHD in cells (pEC50) (converted)
How it was run: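 HIF1a stabilization was measured by ELISA on lysates of H9c2 rat cardiomyocytes after 24 h exposure to 11 serial compound concentrations, expressed relative to the desferrioxamine maximum. Curve fits gave EC50. EC50pos denotes the concentration producing half the desferrioxamine maximal response.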

VEGF = assay: Heart gene changes for vascular endothelial growth factor (VEGF), qRT-PCR; type: in vivo, mice; conditions: 60 mg/kg; for VEGF % Increase Compared to Control: male C57BL/6 mice, oral, heart, 2 h after dosing
Method: Example D Determination of Heart Gene Changes for Vascular Endothelial Growth Factor (VEGF)
PHD inhibitor or vehicle were administered orally to male C57BL/6 in groups of four. The compounds were formulated in 30% hydroxypropyl beta-cyclodextrin in 50 mM Sodium Phosphate pH7.4 at doses of 30 mg/kg and 60 mg/kg. Two hours after dosing the mice were euthanized by CO2 and the hearts were removed quickly, sectioned into 2 pieces; the lower (apical) section was snap frozen and stored at −80° C. and analyzed for VEGF gene changes applying qRT-PCR and using Life Technologies #4392938 and an RNA extraction protocol using Qiagen #74881 RNeasy 96 Universal Tissue Kit. Standards are made from RNA from combined vehicle treated animals at a concentration of 100 μg/mL, a 7 point curve is made with 1:4 dilutions and a blank. Samples are run on using RNA-to-CT 1-Step method using a StepOnePlus Real-Time PCR System from Applied Biosystems Relative quantitation is expressed by dividing the quantity of VEGF by the quantity of the reference gene. Treatment groups and vehicle control were combined and averaged.

[2] = biological target: PHD2 enzyme (residues 181-417) (Homo sapiens (Human), UniProt Q9GZT9); assay: Inhibition of PHD enzyme (LC/MS peptide hydroxylation assay); type: biochemical; conditions: PHD2 (residues 181-417) 5 nM, 60 min pre-incubation; -log(IC50), IC50 molar
PHD2 enzyme (residues 181-417), sequence (Q9GZT9 181-417): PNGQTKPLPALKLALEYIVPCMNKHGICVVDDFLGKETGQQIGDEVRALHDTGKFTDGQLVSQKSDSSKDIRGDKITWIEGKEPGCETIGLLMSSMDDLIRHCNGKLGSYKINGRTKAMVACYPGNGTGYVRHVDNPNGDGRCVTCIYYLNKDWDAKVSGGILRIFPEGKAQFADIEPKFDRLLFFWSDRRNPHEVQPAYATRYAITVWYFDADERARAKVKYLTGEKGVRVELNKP
How it was run: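 Hydroxylated peptide quantified by LC/MS after 60 min turnover of 1 uM biotinylated peptide with 2 uM 2-oxoglutarate and 1 mM ascorbate, stopped by excess tight-binding inhibitor. Beforehand, 5 nM enzyme and compound were preincubated 60 min at RT, pH 7.3 HEPES/KCl/TCEP/FeCl2/BSA buffer. Values as pIC50 (−log molar IC50).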

C57 mice = assay: In vivo cardioprotection assay, Langendorff global ischemia/reperfusion, mice; conditions: oral, 60 min reperfusion; for reduced area of the infarct compared to vehicle control: 4 h after dosing, 30 min global ischemia
Method: (§1) Example C In Vivo Cardioprotection Assay
(§2) PHD inhibitor or vehicle was administered orally to 8-week old male C57 mice or Sprague Dawley rats. Four hours after dosing, hearts were removed quickly and perfused in a retrograde manner with modified Krebs-Henseleit buffer in a Langendorff apparatus at constant pressure (80 mmHg). To measure infarct size, hearts were first perfused for 20 min to reach equilibrium and then subjected to a 30-minute global ischemia (no-flow) period followed by a 60-min reperfusion period in mice or 90-min reperfusion in rats. The ventricles were cut transversely into 5 sections. The slices were stained 1% 2,3,5-triphenyl tetrazolium chloride (TTC) and scanned to measure the infarct area and the total area. Cardiac injury was assessed by measuring lactate dehydrogenase (LDH) release to coronary effluent during the 60-min reperfusion period (in mice only). The amount of LDH release was determined using an LDH activity assay kit (MBL International Corp.) as expressed as % of vehicle treated hearts.

Sprague Dawley rats = assay: In vivo cardioprotection assay, Langendorff global ischemia/reperfusion, rats; conditions: oral, 5 mg/kg, 30 min global ischemia, 90 min reperfusion
Method: as §1, §2

| Structure (SMILES) | EC50 [1] [nM] | VEGF % Increase Compared to Control (VEGF) [%] | PHD Inhibition (pIC50) [2] | reduction of LDH released to the coronary effluent (C57 mice; 10 mg/kg) [%] | reduced area of the infarct compared to vehicle control (C57 mice; 10 mg/kg) [%] | reduction of LDH released to the coronary effluent (C57 mice; 30 mg/kg) [%] | reduced area of the infarct compared to vehicle control (C57 mice; 30 mg/kg) [%] | reduced area of the infarct (Sprague Dawley rats) [%] | greater VEGF mRNA production compared to the compound of Example R1 (VEGF; mouse heart) [fold] |
| --- | --- | --- | --- | --- | --- | --- | --- | --- | --- |
| CC(C)(C)NC(=O)c1ccc(-n2ncc(-c3cccnc3)c2O)nc1 [Example R1, N-tert-butyl-6-(5-oxo-4-pyridin-3-yl-2,5-dihydro-1H-pyrazol-1-yl)pyridine-3-carboxamide, reference compound] | 955 | 95.2 | – | – | – | – | – | – | – |
| CCN1CCN(C(=O)c2ccc(-n3ncc(-c4ccc(C#N)cc4C)c3O)nc2)CC1 [Example 282, 4-(1-(5-(4-ethylpiperazine-1-carbonyl)pyridin-2-yl)-5-hydroxy-1H-pyrazol-4-yl)-3-methylbenzonitrile] | 575 | 203.1 | 8.00 | 51 | 50 | 56 | 59 | 30 | 2 |
| CN1CCC2(CCN(C(=O)c3ccc(-n4ncc(-c5ccc(C#N)cc5)c4O)nc3)C2)C1 (centres unmarked) [Example 350, 4-(5-hydroxy-1-(5-(7-methyl-2,7-diazaspiro[4.4]nonane-2-carbonyl)pyridin-2-yl)-1H-pyrazol-4-yl)benzonitrile] | 3310 | – | 7.26 | – | – | – | – | – | – |
| COCCCNC(=O)c1ccc(-n2ncc(-c3ccc(C#N)c(OC)c3C)c2O)nc1 [Example 411, 6-(4-(4-cyano-3-methoxy-2-methylphenyl)-5-hydroxy-1H-pyrazol-1-yl)-N-(3-methoxypropyl)nicotinamide] | 676 | – | 8.20 | – | – | – | – | – | – |
| CCN1CCCC1CN(C)C(=O)c1ccc(-n2ncc(-c3ccc(C#N)cc3C)c2O)nc1 (centres unmarked) [Example 355, 6-(4-(4-cyano-2-methylphenyl)-5-hydroxy-1H-pyrazol-1-yl)-N-((1-ethylpyrrolidin-2-yl)methyl)-N-methylnicotinamide] | 724 | – | 7.94 | – | – | – | – | – | – |
